Legend:
Type in all cases: functional
Rattus norvegicus [1] = assay: Paw swelling rats induced by Naja naja venom PLA2 when tested at 30 mg/kg ip; conditions: route intraperitoneal
[2] = target: T1, Phospholipase A2, membrane associated (Homo sapiens, UniProt P14555); assay: Tested for inhibitory activity against human synovial fluid PLA2 (HSF-PLA2)
T1 sequence (P14555 whole entry): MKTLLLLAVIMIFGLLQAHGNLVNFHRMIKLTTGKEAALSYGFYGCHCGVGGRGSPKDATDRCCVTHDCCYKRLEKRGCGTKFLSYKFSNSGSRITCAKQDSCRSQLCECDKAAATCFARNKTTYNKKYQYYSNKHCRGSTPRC

[3] = Tested for inhibitory activity against purified recombinant human placental PLA2 (r-hpPLA2)
Rattus norvegicus [4] = organism: Rattus norvegicus; assay: Paw volume in rat during treatment period

Structure (SMILES) | inhibition in vivo at 30 mg/kg (Rattus norvegicus [1]) | IC50 [2] | IC50 [3] | Paw volume (Rattus norvegicus [4])
CCCCCCCCCCOc1cc(OCCCCCCCCCC)cc(N(CC(=O)O)CC(=O)O)c1 | 41% | 230 nM | 87 nM | 1 mL
CCCCCCCCCCOc1cc(OCCCCCCCCCC)cc(C(=O)O)c1 | – | 3000 nM | – | –
